In patent US5288709A, “Erythromycin derivatives” (priority 1991, dated 1994):
Values after ≈ are worked out from the molar mass of the structure shown. Like-named read-outs stand apart in the source and are kept apart here.

Experiments:
Acinetobacter SP CMX 669 = assay: In-vitro antimicrobial activity primary screen (agar dilution MIC); format: cell-based; conditions: Acinetobacter, SPCMX669, 24 h
Summary of the method: (§1)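 Growth inhibition was scored on Brain Heart Infusion agar after 20-24 h incubation at 35-37° C; the MIC is the lowest tested concentration yielding no growth, a slight haze or sparsely isolated colonies on the inoculum spot.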

[1] = tested on: Enterobacter aerogenes ATCC 13048; assay: as above; format: cell-based; conditions: Klebsiella aerogenes
Summary of the method: as §1

[2] = tested on: Enterococcus faecium ATCC 8043; assay: as above; format: cell-based
Summary of the method: as §1

Escherichia coli DC-2 = assay: as above; format: cell-based
Summary of the method: as §1

Escherichia coli H560 = assay: as above; format: cell-based
Summary of the method: as §1

Escherichia coli JUHL = assay: as above; format: cell-based
Summary of the method: as §1

Escherichia coli SS = assay: as above; format: cell-based; conditions: BHI agar, 20-24 h, read-out: MIC
Summary of the method: as §1

[3] = tested on: Klebsiella pneumoniae ATCC 8045; assay: as above; format: cell-based
Summary of the method: as §1

[4] = tested on: Micrococcus luteus ATCC 4698; assay: as above; format: cell-based; conditions: 20-24 h
Summary of the method: as §1

[5] = tested on: Micrococcus luteus ATCC 9341; assay: as above; format: cell-based; conditions: ATCC9341, BHI agar, 20-24 h, read-out: MIC
Summary of the method: as §1

[6] = tested on: Providencia stuartii CMX 640; assay: as above; format: cell-based
Summary of the method: as §1

[7] = tested on: Pseudomonas aeruginosa A5007; assay: as above; format: cell-based
Summary of the method: as §1

[8] = tested on: Pseudomonas aeruginosa BMH10; assay: as above; format: cell-based; conditions: Pseudomonas aeruginosa, BMH10, 24 h, BHI agar, 20-24 h
Summary of the method: as §1

[9] = tested on: Pseudomonas aeruginosa K799/61; assay: as above; format: cell-based; conditions: Pseudomonas aeruginosa K799/61, BHI agar, 20-24 h
Summary of the method: as §1

[10] = tested on: Pseudomonas aeruginosa K799/WT; assay: as above; format: cell-based
Summary of the method: as §1

Pseudomonas cepacia 2961 = assay: as above; format: cell-based; conditions: BHI agar, 20-24 h
Summary of the method: as §1

[11] = tested on: Staphylococcus aureus 45 RAR2; assay: as above; format: cell-based; conditions: Staphylococcus aureus, 45RAR2, 24 h, BHI agar, 20-24 h
Summary of the method: as §1

Staphylococcus aureus 45 = assay: as above; format: cell-based; conditions: BHI agar, 20-24 h
Summary of the method: as §1

[12] = tested on: Staphylococcus aureus 642A; assay: as above; format: cell-based; conditions: BHI agar, 20-24 h, read-out: MIC
Summary of the method: as §1

[13] = tested on: Staphylococcus aureus A5177; assay: as above; format: cell-based; conditions: Staphylococcus aureus, A5177, 24 h
Summary of the method: as §1

[14] = tested on: Staphylococcus aureus ATCC 6538P; assay: as above; format: cell-based; conditions: Staphylococcus aureus, ATCC6538P, 24 h, BHI agar, 20-24 h
Summary of the method: as §1

[15] = tested on: Staphylococcus aureus NCTC 10649; assay: as above; format: cell-based; conditions: NCTC10649, BHI agar, 20-24 h, read-out: MIC
Summary of the method: as §1

[16] = tested on: Staphylococcus epidermidis 3519; assay: as above; format: cell-based; conditions: BHI agar, 20-24 h
Summary of the method: as §1

[17] = tested on: Streptococcus agalactiae CMX 508; assay: as above; format: cell-based; conditions: CMX508, BHI agar, 20-24 h, read-out: MIC
Summary of the method: as §1

[18] = tested on: Streptococcus bovis A5169; assay: as above; format: cell-based; conditions: Streptococcus equinus, BHI agar, 20-24 h
Summary of the method: as §1

[19] = tested on: Streptococcus pyrogenes 2548 INDUC; assay: as above; format: cell-based; conditions: BHI agar, 20-24 h
Summary of the method: as §1

[20] = tested on: Streptococcus pyrogenes EES61; assay: as above; format: cell-based; conditions: BHI agar, 20-24 h, read-out: MIC
Summary of the method: as §1

[21] = tested on: Staphylococcus aureus CMX 553; assay: as above; format: cell-based; conditions: Staphylococcus aureus, CMX553, 24 h, BHI agar, 20-24 h, read-out: MIC
Summary of the method: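 MIC is read as the lowest compound level yielding no growth, slight haze or sparse colonies on the inoculum spot, relative to a drug-free plate. Strains were replicator-inoculated (1:100 dilution) onto BHI agar plates holding twelve dilutions and held at 35-37 °C for 20-24 h, with erythromycin A as comparator.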

[22] = Pharmacokinetic evaluation in dogs after a 10 mg/kg dose; conditions: dog, plasma; for half-life: t1/2 (biological half life); for bioavailability: % ABS (percent absorbance), from AUC (absolute bioavailability); for Cmax: Cmax (maximum concentration in blood); for Tmax: Tmax (time to achieve maximum concentration in blood)
Description: Selected compounds of the present invention were formulated as solutions in dilute lactobionic acid at a concentration of 10 or 20 mg/ml. Groups of two or three dogs were given a 10 mg macrolide/kg intravenous bolus or oral dose (by gavage). Plasma samples, obtained at selected time points from 15 minutes to 32 hours after dosing, were assayed using reverse phase HPLC with electrochemical detection (parent drug) and microbiological assay (total microbiological activity). Plasma concentration time curves were subjected to multi exponential curve fitting to determine terminal elimination half life values. Area under the curve (AUC) values, calculated by the trapezoidal method, were used to calculate absolute bioavailability.

[23] = po, oral 10 mg/kg, HPLC (parent drug)
[24] = po, oral 10 mg/kg, microbiological assay

CC[C@H]1OC(=O)[C@H](C)[C@@H](O[C@H]2C[C@@](C)(OC)[C@@H](N)[C@H](C)O2)[C@H](C)[C@@H](O[C@@H]2O[C@H](C)C[C@H](N(C)C)[C@H]2O)[C@](C)(O)C[C@@H](C)[C@@H]2O[C@@]1(C)[C@@H](N)[C@H]2C [Example 22, (4"S,9S,11S)-4",11-Diamino-9-deoxo-4",11,12-trideoxy-9,12-epoxyerythromycinA]
MIC (Acinetobacter SP CMX 669): 0.39 µg/mL (≈ 0.545 µM) | MIC ([1]; ATCC13048, Enterobacter aerogenes ATCC 13048, BHI agar, 20-24 h, read-out: MIC): 6.2 µg/mL (≈ 8.66 µM) | MIC ([2]; ATCC8043, Enterococcus faecium ATCC 8043, BHI agar, 20-24 h, read-out: MIC): 0.05 µg/mL (≈ 0.0698 µM) | MIC (Escherichia coli DC-2; DC2, Escherichia coli DC-2, BHI agar, 20-24 h, read-out: MIC): 3.1 µg/mL (≈ 4.33 µM) | MIC (Escherichia coli H560; Escherichia coli H560, BHI agar, 20-24 h, read-out: MIC): 0.78 µg/mL (≈ 1.09 µM) | MIC (Escherichia coli JUHL; Escherichia coli JUHL, BHI agar, 20-24 h, read-out: MIC): 1.56 µg/mL (≈ 2.18 µM) | MIC (Escherichia coli SS): 0.1 µg/mL (≈ 0.14 µM) | MIC ([3]; ATCC8045, Klebsiella pneumoniae ATCC 8045, BHI agar, 20-24 h, read-out: MIC): 1.56 µg/mL (≈ 2.18 µM) | MIC ([4]; ATCC4698, BHI agar, read-out: MIC): 0.05 µg/mL (≈ 0.0698 µM) | MIC [5]: ≤ 0.005 µg/mL | MIC ([6]; CMX640, Providencia stuartii CMX 640, BHI agar, 20-24 h, read-out: MIC): > 100 µg/mL | MIC ([7]; Pseudomonas aeruginosa A5007, BHI agar, 20-24 h, read-out: MIC): > 100 µg/mL | MIC [8]: 12.5 µg/mL (≈ 17.5 µM) | MIC ([9]; read-out: MIC): 0.39 µg/mL (≈ 0.545 µM) | MIC ([10]; Pseudomonas aeruginosa K799/WT, BHI agar, 20-24 h, read-out: MIC): 100 µg/mL (≈ 140 µM) | MIC (Pseudomonas cepacia 2961; Burkholderia cepacia, read-out: MIC): > 100 µg/mL | MIC [11]: 0.2 µg/mL (≈ 0.279 µM) | MIC (Staphylococcus aureus 45; read-out: MIC): 0.1 µg/mL (≈ 0.14 µM) | MIC [12]: 0.2 µg/mL (≈ 0.279 µM) | MIC [13]: 1.56 µg/mL (≈ 2.18 µM) | MIC [14]: 0.2 µg/mL (≈ 0.279 µM) | MIC [15]: 0.2 µg/mL (≈ 0.279 µM) | MIC ([16]; read-out: MIC): 0.2 µg/mL (≈ 0.279 µM) | MIC [17]: 0.01 µg/mL (≈ 0.014 µM) | MIC ([18]; read-out: MIC): 0.01 µg/mL (≈ 0.014 µM) | MIC ([19]; read-out: MIC): 1.56 µg/mL (≈ 2.18 µM) | MIC [20]: 0.01 µg/mL (≈ 0.014 µM) | MIC [21]: 0.2 µg/mL (≈ 0.279 µM) | half-life ([22]; iv, IV 10 mg/kg, HPLC (parent drug)): 558 min | half-life ([22]; iv, IV 10 mg/kg, microbiological assay): 612 min | bioavailability [22, 23]: 43% | bioavailability [22, 24]: 57% | Cmax [22, 23]: 3200 ng/mL | Cmax [22, 24]: 3500 ng/mL | Tmax [22, 23]: 30 min | Tmax [22, 24]: 36 min | half-life [22, 23]: 690 min | half-life [22, 24]: 588 min

CC[C@H]1OC(=O)[C@H](C)[C@@H](O[C@H]2C[C@@](C)(OC)[C@@H](O)[C@H](C)O2)[C@H](C)[C@@H](O[C@@H]2O[C@H](C)C[C@H](N(C)C)[C@H]2O)[C@](C)(OC)C[C@@H](C)[C@@H]2O[C@@]1(C)C(=O)[C@H]2C [Example 28B]
MIC (Acinetobacter SP CMX 669; Acinetobacter SP CMX 669, BHI agar, 20-24 h): 12.5 µg/mL (≈ 17.1 µM) | MIC ([1]; ATCC13048, 24 h): > 100 µg/mL | MIC ([2]; Enterococcus faecium, ATCC8043, 24 h): 0.1 µg/mL (≈ 0.137 µM) | MIC (Escherichia coli DC-2; Escherichia coli, DC2, 24 h): > 100 µg/mL | MIC (Escherichia coli H560; Escherichia coli, H560, 24 h): > 100 µg/mL | MIC (Escherichia coli JUHL; Escherichia coli, 24 h): > 100 µg/mL | MIC (Escherichia coli SS): 0.39 µg/mL (≈ 0.534 µM) | MIC ([3]; Klebsiella pneumoniae, ATCC8045, 24 h): > 100 µg/mL | MIC ([4]; Micrococcus luteus, ATCC4698, 24 h, BHI agar): 0.1 µg/mL (≈ 0.137 µM) | MIC [5]: 0.05 µg/mL (≈ 0.0685 µM) | MIC ([6]; Providencia stuartii, CMX640, 24 h): > 100 µg/mL | MIC ([7]; Pseudomonas aeruginosa, A5007, 24 h): > 100 µg/mL | MIC [8]: 50 µg/mL (≈ 68.5 µM) | MIC ([9]; Pseudomonas aeruginosa, K799/61, 24 h): 3.1 µg/mL (≈ 4.25 µM) | MIC ([10]; Pseudomonas aeruginosa, K799/WT, 24 h): > 100 µg/mL | MIC (Pseudomonas cepacia 2961; Burkholderia cepacia, 2961, 24 h): > 100 µg/mL | MIC [11]: 0.39 µg/mL (≈ 0.534 µM) | MIC (Staphylococcus aureus 45; Staphylococcus aureus, 45, 24 h): 3.1 µg/mL (≈ 4.25 µM) | MIC [12]: 0.39 µg/mL (≈ 0.534 µM) | MIC [13]: 0.39 µg/mL (≈ 0.534 µM) | MIC [14]: 0.39 µg/mL (≈ 0.534 µM) | MIC [15]: 0.39 µg/mL (≈ 0.534 µM) | MIC ([16]; Staphylococcus epidermidis, 3519, 24 h): 0.39 µg/mL (≈ 0.534 µM) | MIC [17]: 0.02 µg/mL (≈ 0.0274 µM) | MIC ([18]; A5169, 24 h): 0.05 µg/mL (≈ 0.0685 µM) | MIC ([19]; Streptococcus, 2548INDUC, 24 h): 3.1 µg/mL (≈ 4.25 µM) | MIC [20]: 0.02 µg/mL (≈ 0.0274 µM) | MIC [21]: 0.39 µg/mL (≈ 0.534 µM)
